Data on 25 compounds can be found in patent publication US20110160196A1, “FACTOR XA INHIBITORS” (Millennium Pharmaceuticals, Inc., priority 2007, published 2011).

The test concerns the target T1, human plasma protein factor Xa (Homo sapiens, UniProt P00742).
T1 construct: The human plasma protein factor Xa was purchased; purchased Haematologic Technologies (Essex Junction, Vt.); host or cells: human plasma
The experiment in a line: Factor Xa IC50 determination (cleavage of paranitroanilide substrate S-2765). Type of test: biochemical. The settings on record: factor Xa 1 nM, S-2765 100 μM, Tris buffered saline pH 7.4, read at 405 nm. An excerpt:
This example illustrates methods for evaluating the compounds of the invention, along with results obtained for such assays. The in vitro and in vivo human Factor Xa activities of the inventive compounds can be determined by various procedures known in the art, such as a test for their ability to inhibit the activity of human plasma Factor Xa. […] The IC50 value is the concentration (in nM) of the compound required to provide 50% inhibition of human Factor Xa proteolytic activity.
An in vitro assay for detecting and measuring inhibition activity against Factor Xa is as follows:
The substrate S-2765 (Z-D-Arg-Gly-Arg-pNA.HCl) was obtained from Diapharma (West Chester, Ohio).
The human plasma protein factor Xa was purchased from Haematologic Technologies (Essex Junction, Vt.).
All assays, which are performed in 96-well microtiter plates, measure proteolytic activity of the enzyme (factor Xa) by following cleavage of a paranitroanilide peptide substrate. The assay buffer used for proteolytic assays was Tris buffered saline (20 mM Tris, 150 mM NaCl, 5 mM CaCl2, 0.1% Bovine serum albumin (BSA), 5% Dimethly Sulfoxide (DMSO) pH 7.4). In a 96-well microtiter plate, inhibitor was serially diluted to give a range of final concentrations from 0.01 nM to 10 μM. Duplicate sets of wells were assayed and control wells without inhibitor were included. Enzyme was added to each well, (factor Xa concentration=1 nM), the plate was shaken for 5 seconds and then incubated for 5 minutes at room temperature. S-2765 was added (100 μM final) and the plate was shaken for 5 seconds (final volume in each well was 200 μl). The degree of substrate hydrolysis was measured at 405 nm on a Thermomax plate reader (Molecular Devices, Sunnyvale, Calif.) for 2 minutes. The initial velocities of substrate cleavage (mOD/min), for each range of inhibitor concentrations, were fitted to a four parameter equation using Softmax data analysis software. The parameter C, derived from the resulting curve-fit, corresponded to the concentration for half maximal inhibition (IC50).

T1 sequence (P00742 235-488 limits assumed): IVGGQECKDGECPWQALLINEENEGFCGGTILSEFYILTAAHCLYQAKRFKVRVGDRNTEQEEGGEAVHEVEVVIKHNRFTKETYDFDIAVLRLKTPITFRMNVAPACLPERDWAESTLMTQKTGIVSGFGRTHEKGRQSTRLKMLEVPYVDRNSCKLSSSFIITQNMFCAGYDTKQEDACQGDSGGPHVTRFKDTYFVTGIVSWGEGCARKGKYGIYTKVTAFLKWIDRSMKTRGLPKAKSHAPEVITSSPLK
T1 sequence (P00742 41-179 partner limits assumed): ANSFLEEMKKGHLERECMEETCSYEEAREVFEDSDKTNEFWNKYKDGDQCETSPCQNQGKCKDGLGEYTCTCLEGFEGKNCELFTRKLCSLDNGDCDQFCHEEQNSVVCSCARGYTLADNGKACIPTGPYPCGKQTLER

As for `CNc1cc(-n2ccccc2=O)ccc1-n1cc(CNC(=O)c2ccc(Cl)s2)nn1` [Compound 1, 5-Chloro-N-((1-(2-(methylamino)-4-(2-oxopyridin-1(2H)-yl)phenyl)-1H-1,2,3-triazol-4-yl)methyl)thiophene-2-carboxamide], the IC50 was at most 100 nM. `CN(C)c1cc(-n2ccccc2=O)ccc1-n1cc(CNC(=O)c2ccc(Cl)s2)nn1` [Compound 2, 5-Chloro-N-((1-(2-(dimethylamino)-4-(2-oxopyridin-1(2H)-yl)phenyl)-1H-1,2,3-triazol-4-yl)methyl)thiophene-2-carboxamide] showed a 50% inhibitory concentration (IC50) of at most 100 nM. The figure for `O=C(NCc1cn(-c2ccc(-n3ccccc3=O)cc2N2CCCC2)nn1)c1ccc(Cl)s1` [Compound 3, 5-Chloro-N-((1-(4-(2-oxopyridin-1(2H)-yl)-2-(pyrrolidin-1-yl)phenyl)-1H-1,2,3-triazol-4-yl)methyl)thiophene-2-carboxamide] is at most 100 nM. As to `O=C(NCc1cn(-c2ccc(-n3ccccc3=O)cc2N2CCCCC2)nn1)c1ccc(Cl)s1` [Compound 4, 5-Chloro-N-((1-(4-(2-oxopyridin-1(2H)-yl)-2-(piperidin-1-yl)phenyl)-1H-1,2,3-triazol-4-yl)methyl)thiophene-2-carboxamide], the IC50 was at most 100 nM. The figure for `O=C(NCc1cn(-c2ccc(-n3ccccc3=O)cc2N2CCOCC2)nn1)c1ccc(Cl)s1` [Compound 5, 5-Chloro-N-((1-(2-morpholino-4-(2-oxopyridin-1(2H)-yl)phenyl)-1H-1,2,3-triazol-4-yl)methyl)thiophene-2-carboxamide] is at most 100 nM; for `O=C1CN(c2cc(-n3ccccc3=O)ccc2-n2cc(CNC(=O)c3ccc(Cl)s3)nn2)CCN1` [Compound 6, 5-Chloro-N-((1-(2-(3-oxopiperazin-1-yl)-4-(2-oxopyridin-1(2H)-yl)phenyl)-1H-1,2,3-triazol-4-yl)methyl)thiophene-2-carboxamide] it is at most 100 nM; for `O=C(NCc1cn(-c2ccc(-n3ccccc3=O)cc2N2CCSCC2)nn1)c1ccc(Cl)s1` [Compound 10, 5-Chloro-N-((1-(4-(2-oxopyridin-1(2H)-yl)-2-thiomorpholinophenyl)-1H-1,2,3-triazol-4-yl)methyl)thiophene-2-carboxamide] it is at most 100 nM. The figure for `O=C(NCc1cn(-c2ccc(-n3ccccc3=O)cc2N2CC[S+]([O-])CC2)nn1)c1ccc(Cl)s1` [Compound 11, 5-Chloro-N-((1-(4-(2-oxopyridin-1(2H)-yl)-2-((1-oxo-)thiomorpholino)phenyl)-1H-1,2,3-triazol-4-yl)methyl)thiophene-2-carboxamide] is at most 100 nM; for `O=C(NCc1cn(-c2ccc(-n3ccccc3=O)cc2N2CCS(=O)(=O)CC2)nn1)c1ccc(Cl)s1` [Compound 12, 5-Chloro-N-((1-(4-(2-oxopyridin-1(2H)-yl)-2-((1,1-dioxo-)thiomorpholino)phenyl)-1H-1,2,3-triazol-4-yl)methyl)thiophene-2-carboxamide] it is at most 100 nM. Under `CC(=O)N1CCN(c2cc(-n3ccccc3=O)ccc2-n2cc(CNC(=O)c3ccc(Cl)s3)nn2)CC1` [Compound 13, N-((1-(2-(4-Acetylpiperazin-1-yl)-4-(2-oxopyridin-1(2H)-yl)phenyl)-1H-1,2,3-triazol-4-yl)methyl)-5-chlorothiophene-2-carboxamide] stands at most 100 nM; under `CC(=N)N1CCN(c2cc(-n3ccccc3=O)ccc2-n2cc(CNC(=O)c3ccc(Cl)s3)nn2)CC1` [Compound 14, 5-Chloro-N-((1-(2-(4-(1-iminoethyl)piperazin-1-yl)-4-(2-oxopyridin-1(2H)-yl)phenyl)-1H-1,2,3-triazol-4-yl)methyl)thiophene-2-carboxamide], at most 100 nM; under `NC(=O)N1CCN(c2cc(-n3ccccc3=O)ccc2-n2cc(CNC(=O)c3ccc(Cl)s3)nn2)CC1` [Compound 15, 4-(2-(4-((2-Chlorothiophene-5-carboxamido)methyl)-1H-1,2,3-triazol-1-yl)-5-(2-oxopyridin-1(2H)-yl)phenyl)piperazine-1-carboxamide], at most 100 nM. The compound `CN(C)C1CCN(c2cc(-n3ccccc3=O)ccc2-n2cc(CNC(=O)c3ccc(Cl)s3)nn2)CC1` [Compound 16, 5-Chloro-N-((1-(2-(4-(dimethylamino)piperidin-1-yl)-4-(2-oxopyridin-1(2H)-yl)phenyl)-1H-1,2,3-triazol-4-yl)methyl)thiophene-2-carboxamide] came in with an IC50 of at most 100 nM. The figure for `NC1CCN(c2cc(-n3ccccc3=O)ccc2-n2cc(CNC(=O)c3ccc(Cl)s3)nn2)CC1` [Compound 17, N-((1-(2-(4-Aminopiperidin-1-yl)-4-(2-oxopyridin-1(2H)-yl)phenyl)-1H-1,2,3-triazol-4-yl)methyl)-5-chlorothiophene-2-carboxamide] is at most 100 nM; for `CC(=O)NC1CCN(c2cc(-n3ccccc3=O)ccc2-n2cc(CNC(=O)c3ccc(Cl)s3)nn2)CC1` [Compound 18, N-((1-(2-(4-Acetamidopiperidin-1-yl)-4-(2-oxopyridin-1(2H)-yl)phenyl)-1H-1,2,3-triazol-4-yl)methyl)-5-chlorothiophene-2-carboxamide] it is at most 100 nM. The figure for `NC(=O)NC1CCN(c2cc(-n3ccccc3=O)ccc2-n2cc(CNC(=O)c3ccc(Cl)s3)nn2)CC1` [Compound 20, 1-(1-(2-(4-((2-Chlorothiophene-5-carboxamido)methyl)-1H-1,2,3-triazol-1-yl)-5-(2-oxopyridin-l(2H)-yl)phenyl)piperidin-4-yl)urea] is at most 100 nM; for `O=C(NCc1cn(-c2ccc(-n3ccccc3=O)cc2N2CCC(O)CC2)nn1)c1ccc(Cl)s1` [Compound 21, 5-Chloro-N-((1-(2-(4-hydroxypiperidin-1-yl)-4-(2-oxopyridin-1(2H)-yl)phenyl)-1H-1,2,3-triazol-4-yl)methyl)thiophene-2-carboxamide] it is at most 100 nM; for `O=C(NCc1cn(-c2ccc(-n3ccccc3=O)cc2N2CCC[C@@H](O)C2)nn1)c1ccc(Cl)s1` [Compound 22, 5-Chloro-N-((1-(2-((R)-3-hydroxypiperidin-1-yl)-4-(2-oxopyridin-1(2H)-yl)phenyl)-1H-1,2,3-triazol-4-yl)methyl)thiophene-2-carboxamide] it is at most 100 nM. The figure for `O=C(NCc1cn(-c2ccc(-n3ccccc3=O)cc2N2CCC[C@H](O)C2)nn1)c1ccc(Cl)s1` [Compound 23, 5-Chloro-N-((1-(2-((S)-3-hydroxypiperidin-1-yl)-4-(2-oxopyridin-1(2H)-yl)phenyl)-1H-1,2,3-triazol-4-yl)methyl)thiophene-2-carboxamide] is at most 100 nM.

`O=C(NCc1cn(-c2ccc(-n3ccccc3=O)cc2N2CCC(C(=O)O)CC2)nn1)c1ccc(Cl)s1` [Compound 24, 1-(2-(4-((2-Chlorothiophene-5-carboxamido)methyl)-1H-1,2,3-triazol-1-yl)-5-(2-oxopyridin-1(2H)-yl)phenyl)piperidine-4-carboxylic acid] displayed an IC50 of at most 100 nM. For the compound `NC(=O)C1CCN(c2cc(-n3ccccc3=O)ccc2-n2cc(CNC(=O)c3ccc(Cl)s3)nn2)CC1` [Compound 25, 1-(2-(4-((2-Chlorothiophene-5-carboxamido)methyl)-1H-1,2,3-triazol-1-yl)-5-(2-oxopyridin-1(2H)-yl)phenyl)piperidine-4-carboxamide], the IC50 was at most 100 nM. With `O=C(NCc1cn(-c2ccc(-n3ccccc3=O)cc2NCCO)nn1)c1ccc(Cl)s1` [Compound 26, 5-Chloro-N-((1-(2-(2-hydroxyethylamino)-4-(2-oxopyridin-1(2H)-yl)phenyl)-1H-1,2,3-triazol-4-yl)methyl)thiophene-2-carboxamide], the IC50 is at most 100 nM. The figure for `CN(CCO)c1cc(-n2ccccc2=O)ccc1-n1cc(CNC(=O)c2ccc(Cl)s2)nn1` [Compound 28, 5-Chloro-N-((1-(2-((2-hydroxyethyl)(methyl)amino)-4-(2-oxopyridin-1(2H)-yl)phenyl)-1H-1,2,3-triazol-4-yl)methyl)thiophene-2-carboxamide] is at most 100 nM; for `COCCN(C)c1cc(-n2ccccc2=O)ccc1-n1cc(CNC(=O)c2ccc(Cl)s2)nn1` [Compound 29, 5-Chloro-N-((1-(2-((2-mcthoxyethyl)(methyl)amino)-4-(2-oxopyridin-1(2H)-yl)phenyl)-1H-1,2,3-triazol-4-yl)methyl)thiophene-2-carboxamide] it is at most 100 nM; for `NCCNc1cc(-n2ccccc2=O)ccc1-n1cc(CNC(=O)c2ccc(Cl)s2)nn1` [Compound 30, N-((1-(2-(2-Aminoethylamino)-4-(2-oxopyridin-1(2H)-yl)phenyl)-1H-1,2,3-triazol-4-yl)methyl)-5-chlorothiophene-2-carboxamide] it is at most 100 nM.
